# US20200055848A1, “FURANONE DERIVATES AND METHODS OF USE THEREOF” (CARNA BIOSCIENCES, INC., priority 2016, published 2020)
# Where “and” joins values, the source holds several entries; their conditions need not be identical. Equal entries are not always repeated.
# Assays:
# [1] = In vitro metabolic stability, human liver microsomes; format: in vitro ADME; settings: for HLM % (remaining % of parent compound): 30 min treatment of human liver microsomes
# Experimental: (§1) NADPH regeneration system (13 mM NADP, 33 mM Glucose-6-phospate, 33 mM MgCl2, and 4 U/mL of Glucose-6-phosphate dehydrogenase) and liver microsomes (1 mg/mL of HLM (BD Gentest, lot 18888) or MLM (BD Gentest, lot 31197)) in 0.1 M phosphate buffer (pH 7.4) were pre-incubated separately at 37° C. for 20 min before mixing with 1:4 ratio. 50 μL of the mixed solution was added to 50 μL of the test compound (2 μM) to initiate the reaction at 37° C. (final conc. 1 μM test compound, 0.4 mg/mL liver microsomes, and 1.3 mM NADPH). After 30 min, the reactions were stopped by adding 300 μL of cold acetonitrile. For 0 min samples, ice-cold acetonitrile (with system suitability standard) was treated before mixing the test compound and microsomes. The sample were vortexed well and then centrifuged at 3500 rpm at 15° C. for 20 min. 110 μL of supernatant was mixed with 110 μL of water and quantitated by LC-MS/MS workstation (Shimazu Corp.).
# [2] = target: T1, human Cdc7/human ASK complex protein (Homo sapiens, UniProt O00311); experiment: Cdc7/ASK enzymatic assay; format: biochemical; settings: 5 μM ATP versus 10 μM ATP as printed
# T1 construct: purchased Carna Biosciences, Inc
# [3] = In vitro metabolic stability, mouse liver microsomes; format: in vitro ADME; settings: for MLM % (remaining % of parent compound): 30 min treatment of mouse liver microsomes
# Experimental: as §1
# [4] = Stability of the ethyl ester to hydrolysis; format: physicochemical
# Experimental: Because the ester was expected to form important hydrogen bond with Lys90, an SAR study for the ester group was performed (Table 2). […] Generally esters are labile and can be easily hydrolyzed to the corresponding carboxylic acid. To our surprise, the ethyl ester of 3 was very stable even under strong basic conditions, and it required an extremely strong basic condition (50% w/v KOH aq., reflux) to hydrolyze this ester.
# The general procedure for the replacement of R^2 by various groups is shown in Scheme 2. Methyl ester 8 was obtained analogously to ethyl ester 3 from the furanone intermediate 39 which was prepared from methyl 4-chloroacetoacetate 37 and phenyl isocyanate 38 (Scheme 2A). Compound 9 (Scheme 2B) was obtained by hydrolysis of compound 3 under extremely strong basic condition (50% w/v KOH aq., reflux). […] The amide analogs (10-12) were prepared directly by aminolysis of ethyl ester 3 with appropriate amines (Scheme 2C).
# [5] = target: T1, human Cdc7/human ASK complex protein; experiment: Cdc7/ASK enzymatic assay; format: biochemical; settings: 5 μM ATP; mean of duplicated assays; read-out: Cdc7 IC50
# Experimental: Measurement of Cdc7 kinase activity was carried out using MSA assay kit (QuickScout™ Screening Assist Kit, Carna Biosciences, Inc.). Assay buffer (20 mM HEPES, 0.01% Triton X-100™, 2 mM dithiothreitol, pH 7.5) was used to prepare a substrate mixture solution comprising 4 μM of kinase-reaction substrate (FITC-labeled MCM2 peptide), 40 mM MgCl2, and 4 times concentrations of final targeted ATP (5, 100, and 1,000 μM). The enzyme supplied in the kit (human Cdc7/human ASK complex protein) was diluted into the assay buffer to prepare a 7 nM solution (enzyme solution). The compound stock solution was prepared by diluting a 10 mM DMSO solution into the assay buffer (final 4% DMSO). The kinase reaction was performed by mixing of 5 μL of the compound solution, 5 μL of the substrate mixture solution, and 10 μL of the enzyme solution in a 384-well plate. For the pre-incubation assay, the compound solution and the enzyme solution were pre-mixed and incubated at ambient temperature for 30 min before adding into the substrate mixture solution to start enzymatic reaction. After the reaction at 25° C. for 5 hours, 60 μL of the termination buffer (supplied in the kit) was added to stop the reaction. The phosphorylation of substrate was measured using a LabChip EZ Reader II system (Caliper Life Sciences). The percent inhibition (%) by a tested compound was calculated according to the following formula:
# Percent inhibition (%)=(1−(C−A)/(B−A))×100
# A represents P/(P+S) for a blank well, B represents P/(P+S) for a solvent well, and C represents P/(P+S) for a compound-added well. S: the peak heights of the separated substrate, P: phosphorylated substrate.
# The IC50 value of tested compound was calculated by regression analysis of the percent inhibition values versus the (logarithmic) concentration of the tested compound.
# T1 sequence (O00311 whole entry): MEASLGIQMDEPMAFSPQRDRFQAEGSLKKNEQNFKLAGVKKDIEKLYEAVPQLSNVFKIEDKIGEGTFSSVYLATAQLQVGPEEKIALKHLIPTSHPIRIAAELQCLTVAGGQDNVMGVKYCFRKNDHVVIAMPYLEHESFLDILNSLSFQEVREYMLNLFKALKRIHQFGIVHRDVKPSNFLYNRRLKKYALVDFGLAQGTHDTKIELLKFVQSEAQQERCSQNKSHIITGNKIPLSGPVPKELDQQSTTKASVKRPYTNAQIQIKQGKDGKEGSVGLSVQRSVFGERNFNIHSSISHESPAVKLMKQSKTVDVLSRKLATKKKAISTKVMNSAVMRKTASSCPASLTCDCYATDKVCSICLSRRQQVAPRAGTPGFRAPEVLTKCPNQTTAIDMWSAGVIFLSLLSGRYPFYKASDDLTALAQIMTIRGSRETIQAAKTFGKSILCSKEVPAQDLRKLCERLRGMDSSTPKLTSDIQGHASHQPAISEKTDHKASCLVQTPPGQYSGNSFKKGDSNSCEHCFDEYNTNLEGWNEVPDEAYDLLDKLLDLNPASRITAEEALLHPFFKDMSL
# T1 sequence (Q9UBU7 whole entry partner): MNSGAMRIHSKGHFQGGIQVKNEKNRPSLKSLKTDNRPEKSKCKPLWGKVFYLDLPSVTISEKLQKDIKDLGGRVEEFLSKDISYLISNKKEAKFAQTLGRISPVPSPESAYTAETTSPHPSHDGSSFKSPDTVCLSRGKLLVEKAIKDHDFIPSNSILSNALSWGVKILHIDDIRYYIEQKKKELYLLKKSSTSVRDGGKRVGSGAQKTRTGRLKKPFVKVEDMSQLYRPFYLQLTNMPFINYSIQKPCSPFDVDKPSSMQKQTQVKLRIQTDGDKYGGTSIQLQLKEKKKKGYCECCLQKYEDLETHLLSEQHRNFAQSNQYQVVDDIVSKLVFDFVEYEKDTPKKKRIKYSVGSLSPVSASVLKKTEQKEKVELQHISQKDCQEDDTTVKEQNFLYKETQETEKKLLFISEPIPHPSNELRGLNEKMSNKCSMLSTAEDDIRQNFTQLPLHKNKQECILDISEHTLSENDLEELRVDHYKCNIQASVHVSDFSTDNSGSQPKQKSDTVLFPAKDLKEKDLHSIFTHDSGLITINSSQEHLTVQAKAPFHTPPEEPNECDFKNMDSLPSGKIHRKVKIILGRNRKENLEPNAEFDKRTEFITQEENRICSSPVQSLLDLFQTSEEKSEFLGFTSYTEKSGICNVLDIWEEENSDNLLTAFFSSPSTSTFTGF
HLM % (remaining % of parent compound) [1] [%],metabolic stability in human liver microsome (in words) ([1]; human),fold stronger inhibitory potency at 5 μM ATP than inhibition at 10 μM ATP concentration [2] [fold],MLM % (remaining % of parent compound) [3] [%],metabolic stability in mice (in words) ([3]; mouse),"stability of the ethyl ester ([4]; conventional ester hydrolysis conditions: 2N HCl aq./EtOH, 60° C. or 2N NaOH aq./EtOH, 60° C.)","stability of the ethyl ester ([4]; strong basic conditions, hydrolysis required 50% w/v KOH aq., reflux)",IC50 [5],Structure (SMILES)
23,moderate metabolic stability,21,7.9,rapidly metabolized,very stable,very stable,3.3 nM and 3.8 nM,"CCOC(=O)C1=C(Nc2ccccc2)OC(=Cc2c[nH]c3ncccc23)C1=O [Compound 3, Ethyl 5-((1H-pyrrolo[2,3-b]pyridin-3-yl)methylene)-4-oxo-2-(phenylamino)-4,5-dihydrofuran-3-carboxylate]"
30,–,–,10,–,–,–,2.4 nM,"CCOC(=O)C1=C(Nc2ccccc2F)OC(=Cc2c[nH]c3ncccc23)C1=O [Compound 19, Ethyl 5-[(1H-pyrrolo[2,3-b]pyridin-3-yl)methylene]-2-[(2-fluorophenyl)amino]-4-oxo-4,5-dihydrofuran-3-carboxylate]"
33,–,–,5.1,–,–,–,4.9 nM,"CCOC(=O)C1=C(Nc2ccc(OC)cc2)OC(=Cc2c[nH]c3ncccc23)C1=O [Compound 18, Ethyl 5-((1H-pyrrolo[2,3-b]pyridin-3-yl)methylene)-2-((4-methoxyphenyl)amino)-4-oxo-4,5-dihydrofuran-3-carboxylate]"
